According to the NIST ThermoML archive (doi:10.1021/je800375t):

Conditions: Liquid

COC [dimethyl ether]
Conditions	vapor or sublimation pressure [kPa]
213.08 K	16.46
218.11 K	22.24
223.15 K	29.61
228.06 K	38.64
233.09 K	49.96
238.11 K	63.84
243.07 K	80.36
248.12 K	100.43
253.12 K	124.09
258.13 K	152.4
263.13 K	184.96
268.13 K	222.7
273.17 K	266.5
278.17 K	316.12
283.16 K	372.9
288.13 K	436.69
293.17 K	509.01
298.08 K	588.17
298.78 K	600.51
303.15 K	679.68
303.78 K	691.56
308.13 K	778.92
313.17 K	889.98
318.16 K	1011.5
323.17 K	1144.7
328.16 K	1290.2
333.17 K	1449.2
338.17 K	1621.5
343.16 K	1809.1
348.16 K	2012.4
353.16 K	2232.3
358.16 K	2468.9
363.16 K	2723.3
368.14 K	2996.4
373.14 K	3291.2
378.15 K	3608.6
383.15 K	3948.6
388.16 K	4313.9
393.16 K	4706.2
